Data reported in US20050026949A1, “Methods of therapeutic treatment using amounts of retinoids without regard to body weight” (Allergan, Inc., priority 2003, published 2005).

Experiments:
Type in all cases: in vivo, human
patients = test: Two placebo-controlled 24-week safety studies of oral tazarotene plus dose-response evaluations (Example 3)
Method: Two multicenter, double-blind, randomized, placebo-controlled 24-week studies of identical design are conducted to evaluate the safety of oral tazarotene. In addition, 16- to 24-week dose-response evaluations are performed.
In the two safety trials, the incidence of adverse side effects with a 4.5 mg dose administered orally once daily is compared to the incidence of the same side effects with a placebo. […] The majority of these were mild in severity and typical of adverse effects associated with oral retinoids.

[1] = system: patients with moderate to very severe plaque psoriasis; test: Open-label extension study of oral tazarotene (Example 4)
Method: Two multicenter, double-blind, placebo-controlled studies ware conducted to evaluate the efficacy and safety of oral tazarotene (4.5 mg once daily) in patients with moderate to very severe plaque psoriasis. […] Efficacy evaluations include overall lesional assessment (OLA), percent body surface area involvement, global response to treatment, plaque elevation, scaling, and erythema. OLA is graded on a 6-point scale (0=none, 1=minimal, 2=mild, 3=moderate, 4=severe, 5=very severe).

[2] = PK and PD interaction studies of oral tazarotene with oral contraceptives (Example 8)
Method: It is the objective of this study to determine if there are pharmacokinetic (PK) and pharmacodynamic (PD) interactions between tazarotene and commonly prescribed oral contraceptives (OCs) when coadministered together.
Three separate clinical studies are conducted to evaluate the PK and PD interactions of oral tazarotene and OCs in healthy volunteers. Two studies evaluate daily doses of norethindrone (NE)/ethinyl estradiol (EE) with daily doses of tazarotene 1.1 mg (N=27) and 6 mg (N=29). The third study assesses the daily doses of norgestimate (NGM)/EE with daily doses of tazarotene 6 mg (N=26). OCs are administered for three consecutive menstrual cycles. Daily doses of tazarotene are started during the 2nd cycle and continued through the end of the studies. PK parameters for EE, NE, and NGM (AUC0-24 and Cmax) are determined before tazarotene dosing and after tazarotene dosing on day 6 of the 2nd and 3rd cycles. Serum concentrations of luteinizing hormone (LH) and follicle-stimulating hormone (FSH)-markers of contraceptive efficacy are also evaluated before tazarotene dosing and after tazarotene dosing on days 2, 4, and 6 of the 2nd and 3rd cycles. Serum progesterone levels are assessed on days 18 and 20 of the 2nd and 3rd cycles.
The plasma of each subject is tested for Cmax and AUC of tazarotenic acid, the primary active retinoid agent in systemic circulation as the result of the oral administration of tazarotene.

[3] = system: patients with moderate to very severe plaque psoriasis; test: Open-label extension study of oral tazarotene (Example 4); conditions: 4.5 mg once daily, 12-week extension treatment period, both groups
[4] = 4.5 mg orally once daily, placebo 0%
[5] = 4.5 mg orally once daily, placebo 1%
[6] = 4.5 mg orally once daily, placebo 2%
[7] = 4.5 mg orally once daily, placebo 3%
[8] = 4.5 mg orally once daily, placebo 8%
[9] = 4.5 mg orally once daily, placebo <1%
[10] = 4.5 mg once daily, 12-week extension treatment period, both groups
[11] = 4.5 mg once daily, extension study

changes in liver function test values or cholesterol levels [1, 11]: no clinically significant changes
effect on PK or efficacy of NE/EE and NGM/EE oral contraceptives ([2]; orally, up to 6 mg once daily): does not affect
90% confidence intervals of AUC0-24 and Cmax for EE, NE, and NGM ([2]; tazarotene 1.1 mg or 6 mg daily with NE/EE, 6 mg daily with NGM/EE): within the 80-125% boundary
Compound: CCOC(=O)c1ccc(C#Cc2ccc3c(c2)C(C)(C)CCS3)nc1 [tazarotene]
incidence of patients discontinuing due to adverse effects (patients; 4.5 mg (n=348)): 3%
incidence of ocular, auditory, or thyroid problems (patients; 4.5 mg orally once daily vs placebo): no statistically significant between-group difference
incidence of agitation (patients; [4]): < 1%
incidence of dermatitis (patients; [4]): 1%
incidence of hyperglycemia (patients; [4]): 2%
incidence of foot pain (patients; [5]): 3%
incidence of joint disorder (patients; [5]): 4%
incidence of nasal dryness (patients; [5]): 4%
incidence of rash (patients; [5]): 3%
incidence of altered hormone levels (elevated TSH and T4, decreased T4, abnormal thyroid function test) (patients; [6]): 0%
incidence of depression (patients; [6]): 1%
incidence of back pain (patients; [7]): 7%
incidence of emotional lability (patients; [7]): 3%
incidence of arthralgia (patients; [8]): 17%
incidence of myalgia (patients; [8]): 14%
incidence of headache (patients; 4.5 mg orally once daily, placebo 12%): 19%
incidence of dry skin (patients; 4.5 mg orally once daily, placebo 15%): 24%
incidence of cheilitis (patients; 4.5 mg orally once daily, placebo 17%): 66%
incidence of anxiety (patients; [9]): 1%
incidence of psychosis (patients; [9]): 0%
incidence of psychotic depression (patients; [9]): 0%
incidence of patients discontinuing due to adverse effects (patients; 6.3 mg (n=16)): 13%
incidence of patients discontinuing due to adverse effects (patients; 0.4 to 1.1 mg oral tazarotene (n=105)): approximately 2%
incidence of patients discontinuing due to adverse effects (patients; 2.1 to 2.8 mg oral tazarotene (n=21)): 10%
incidence of patients discontinuing due to adverse effects (patients; w.2 mg (n=14)): 0%
incidence of arthralgia [1, 10]: 20%
incidence of cheilitis [1, 10]: 70%
incidence of dry skin [1, 10]: 25%
incidence of hypertriglyceridemia [1, 10]: 6%
patients with clinical success (2-grade reduction in OLA) ([1]; 4.5 mg once daily, end of the 12-week treatment period): 28%
serious adverse events [1, 11]: no serious adverse events considered related to the study treatment
patients with clinical success (2-grade reduction in OLA) ([1]; end of the 12-week post-treatment period): 16%
90% confidence intervals of FSH and LH ([2]; tazarotene coadministered with oral contraceptives): generally within the 80-125% boundary
90% confidence intervals of progesterone concentrations ([2]; tazarotene coadministered with oral contraceptives, days 18 and 20 of 2nd and 3rd cycles): within the 80-125% boundary
serum FSH and LH levels ([2]; tazarotene coadministered with oral contraceptives, follicular phase): remain within the normal ranges
incidence of asthenia [3]: 6%
incidence of back pain [3]: 11%
incidence of headache [3]: 11%
incidence of infection [3]: 10%
incidence of myalgia [3]: 15%
